The values that follow come from patent US20240246977A1, “DEGRADATION OF BRUTON'S TYROSINE KINASE (BTK) BY CONJUGATION OF BTK INHIBITORS WITH E3 LIGASE LIGAND AND METHOD OF USE” (BeiGene Switzerland GmbH, priority 2021, published 2024).

Test [1] has as its system HEK-293 cells. Put plainly: HEK-293 cytotoxicity detection (CellTiter-Glo). Type of test: cell-based. To be noted: Homo sapiens, 72 h, 72 h incubation, CellTiter-Glo luminescence, read-out: HEK293. On the procedure: HEK-293 cells were treated with compounds diluted in 0.2% DMSO, dilution was done according to the following protocol: (1) making 500× stock solution in DMSO from 5 mM by 4-fold dilution, total 8 doses were included; (2) making 2× solution in cell culture medium by transferring 0.5 ul 500× stock solution into 125 ul medium; (3) adding 50 ul of 2× solution to cells for incubation of 72 h.
25 μl of the CellTiter-Glo®Reagent [(Promega)—Cat No. G7572] was added to each well in the 96-well plate. The contents were mixed for 2 minutes on an orbital shaker to induce cell lysis. The plate was then allowed to incubate at room temperature for 10 minutes to stabilize luminescent signal. Luminescence was recorded on BMG PheraStar with luminescence protocol.
The inhibition percentage of the compound was calculated by the following equation: Inhibition percentage of Compound=100−100×(Signal-low control)/(High control-low control), wherein signal=each test compound group
High control=Cell group with added DMSO and without compound, indicating cells proliferation with no inhibition;
Imax is the maximum percentage of inhibition.
The IC50 value of a compound can be obtained by fitting the following equation
(§1) Wherein, X and Y are known values, and IC50, Hillslope, Top and Bottom are the parameters obtained by fitting with software. Y is the inhibition percentage (calculated from the equation), X is the concentration of the compound; IC50 is the concentration of the compound when the 50% inhibition is reached. The smaller the IC50 value is, the stronger the inhibitory ability of the compound is. Vice versa, the higher the IC50 value is, the weaker the ability the inhibitory ability of the compound is; Hillslope represents the slope of the fitted curve, generally around 1*; Bottom represents the minimum value of the curve obtained by data fitting, which is generally 0%±20%; Top represents the maximum value of the curve obtained by data fitting, which is generally 100%±20%. The experimental data were fitted by calculating and analyzing with Dotmatics data analysis software.
On the technique in general: ATP-based viability assays read luminescence as a measure of living cells.

Test [2] deals with BTK (Homo sapiens, UniProt Q06187). Put plainly: BTK cell degradation in TMD-8 cells, HTRF assay. Type of test: cell-based. On the set-up: endogenous in cells; host or cells: TMD-8 cells. To be noted: 6 h treatment, IC50 (DC50) of BTK degradation. As to the method:
TMD-8 cells were treated with compounds diluted in 0.2% DMSO, dilution was done according to the following protocol: (1) making 500× stock solution in DMSO from 1 mM by 6-fold dilution, total 8 doses were included; (2) making 2× solution in cell culture medium by transferring 0.5 μl 500× stock solution into 125 μl medium; (3) adding 15 μl of 2× solution to cells for incubation of 6 h.
After 6 h treatment, 10 μl 14×lysis buffer was added to each well; the plate was sealed and incubated for 30 min at room temperature on a plate shaker; Once the cells was lysed, 16 μL of cell lysate were transferred to a PE 384-well HTRF detection plate; 4 μL of pre-mixed HTRF antibodies were added to each well; the plate was covered with a plate sealer, and then spinned at 1000 rpm for 1 min, then incubated overnight at room temperature; the results were read on BMG PheraStar with HTRF protocol (337 nm-665 nm-620 nm).
The inhibition (degradation) percentage of the compound was calculated by the following equation: Inhibition percentage of Compound=100−100×(Signal-low control)/(High control-low control), wherein signal=each test compound group
High control=Cell group with added DMSO and without compound, indicating microplate readings without BTK degradation;
Dmax is the maximum percentage of inhibition (degradation).
The IC50 (DC50) value of a compound can be obtained by fitting the following equation
Y=Bottom+(TOP−Bottom)/(1+((IC50/X)^hillslope))
as §1, with “wherein,” for “Wherein,”
A general note: In TR-FRET formats the signal depends on donor and acceptor labels being close together.

SMILES strings stand for the structures. Bounds are passed on as bounds.

Chain of BTK (Q06187 whole entry): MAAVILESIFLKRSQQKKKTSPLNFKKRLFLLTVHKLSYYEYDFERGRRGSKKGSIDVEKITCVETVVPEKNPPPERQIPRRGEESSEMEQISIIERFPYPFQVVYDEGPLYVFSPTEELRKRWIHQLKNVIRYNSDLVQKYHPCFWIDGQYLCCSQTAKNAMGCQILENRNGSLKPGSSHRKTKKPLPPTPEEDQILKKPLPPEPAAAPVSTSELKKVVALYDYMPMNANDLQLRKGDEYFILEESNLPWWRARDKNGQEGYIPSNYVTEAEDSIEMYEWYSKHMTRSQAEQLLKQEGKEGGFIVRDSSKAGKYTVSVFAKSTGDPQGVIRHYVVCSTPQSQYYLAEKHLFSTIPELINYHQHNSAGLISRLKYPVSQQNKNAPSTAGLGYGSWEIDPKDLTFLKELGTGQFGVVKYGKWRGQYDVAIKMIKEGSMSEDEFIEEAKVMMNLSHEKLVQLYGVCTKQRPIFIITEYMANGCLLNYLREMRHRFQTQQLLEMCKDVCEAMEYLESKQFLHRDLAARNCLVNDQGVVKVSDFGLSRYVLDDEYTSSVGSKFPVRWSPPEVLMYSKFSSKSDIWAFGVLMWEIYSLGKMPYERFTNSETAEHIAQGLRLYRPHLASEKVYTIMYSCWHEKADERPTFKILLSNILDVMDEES

Broadly, the DC50 is the concentration giving 50% degradation. Lower therefore signals degradation at low concentration. Take `NC(=O)c1c(-c2ccc(Oc3ccccc3)cc2)nn2c1Nc1ccc(NCC3CCN(c4ccc5c(c4)C(=O)N(C4CCC(=O)NC4=O)C5=O)CC3)cc1CC2` (centres unmarked) [Example A3, 7-(((1-(2-(2,6-dioxopiperidin-3-yl)-1,3-dioxoisoindolin-5-yl)piperidin-4-yl)methyl)amino)-2-(4-phenoxyphenyl)-9,10-dihydro-4H-benzo[d]pyrazolo[1,5-a][1,3]diazepine-3-carboxamide]: the IC50 in test [1] was > 10000 nM. Further, the DC50 in test [2] stood at 20.6 nM.

With `NC(=O)c1c(-c2ccc(Oc3ccccc3)cc2)nn2c1Nc1ccc(NC(=O)C3CCN(CC4CCN(c5ccc6c(c5)C(=O)N(C5CCC(=O)NC5=O)C6=O)CC4)CC3)cc1CC2` (centres unmarked) [Example A4, 7-(1-((1-(2-(2,6-dioxopiperidin-3-yl)-1,3-dioxoisoindolin-5-yl)piperidin-4-yl)methyl)piperidine-4-carboxamido)-2-(4-phenoxyphenyl)-9,10-dihydro-4H-benzo[d]pyrazolo[1,5-a][1,3]diazepine-3-carboxamide], the IC50 in test [1] is 78.1 nM. In addition, in test [2], it took 1.26 nM to reach half-maximal degradation (DC50).

As to `NC(=O)c1c(-c2ccc(Oc3ccccc3)cc2)nn2c1Nc1ccc(NC3CCN(CC4CCN(c5cc6c(cc5F)C(=O)N(C5CCC(=O)NC5=O)C6=O)CC4)CC3)cc1CC2` (centres unmarked) [Example A5, 7-((1-((1-(2-(2,6-dioxopiperidin-3-yl)-6-fluoro-1,3-dioxoisoindolin-5-yl)piperidin-4-yl)methyl)piperidin-4-yl)amino)-2-(4-phenoxyphenyl)-9,10-dihydro-4H-benzo[d]pyrazolo[1,5-a][1,3]diazepine-3-carboxamide], the IC50 in test [1] is 83.3 nM. In test [2], this molecule showed a DC50 of 1.45 nM.

For `NC(=O)c1c(-c2ccc(Oc3ccccc3)cc2)nn2c1Nc1ccc(N3CCN(CC4CCN(c5ccc6c(c5)C(=O)N(C5CCC(=O)NC5=O)C6=O)CC4)CC3)cc1CC2` (centres unmarked) [Example A6, 7-(4-((1-(2-(2,6-dioxopiperidin-3-yl)-1,3-dioxoisoindolin-5-yl)piperidin-4-yl)methyl)piperazin-1-yl)-2-(4-phenoxyphenyl)-9,10-dihydro-4H-benzo[d]pyrazolo[1,5-a][1,3]diazepine-3-carboxamide], the IC50 in test [1] was determined as 163 nM. This molecule also came in with a DC50 in test [2] of 3.42 nM.

For the molecule `NC(=O)c1c(-c2ccc(Oc3ccccc3)cc2)nn2c1Nc1ccc(N3CCN(c4ccc5c(c4)C(=O)N(C4CCC(=O)NC4=O)C5=O)CC3)cc1CC2` (centres unmarked) [Example A7, 7-(4-(2-(2,6-dioxopiperidin-3-yl)-1,3-dioxoisoindolin-5-yl)piperazin-1-yl)-2-(4-phenoxyphenyl)-9,10-dihydro-4H-benzo[d]pyrazolo[1,5-a][1,3]diazepine-3-carboxamide], the IC50 in test [1] was found to be 178 nM. In test [2], this molecule showed a half-maximal degradation concentration (DC50) of 2.51 nM.

Take `NC(=O)c1c(-c2ccc(Oc3ccccc3)cc2)nn2c1Nc1ccc(NC3CCN(c4ccc5c(c4)C(=O)N(C4CCC(=O)NC4=O)C5=O)CC3)cc1CC2` (centres unmarked) [Example A8, 7-((1-(2-(2,6-dioxopiperidin-3-yl)-1,3-dioxoisoindolin-5-yl)piperidin-4-yl)amino)-2-(4-phenoxyphenyl)-9,10-dihydro-4H-benzo[d]pyrazolo[1,5-a][1,3]diazepine-3-carboxamide]: the IC50 in test [1] is 280 nM. Half-maximal degradation in test [2] (DC50) was put at 2.97 nM.

In the case of `NC(=O)c1c(-c2ccc(Oc3ccccc3)cc2)nn2c1Nc1ccc(C(=O)NC3CCN(c4ccc5c(c4)C(=O)N(C4CCC(=O)NC4=O)C5=O)CC3)cc1CC2` (centres unmarked) [Example A9, N7-(1-(2-(2,6-dioxopiperidin-3-yl)-1,3-dioxoisoindolin-5-yl)piperidin-4-yl)-2-(4-phenoxyphenyl)-9,10-dihydro-4H-benzo[d]pyrazolo[1,5-a][1,3]diazepine-3,7-dicarboxamide], in test [1], the IC50 turned out to be 65.6 nM. The molecule further gave a 50% degradation concentration (DC50) in test [2] of 2.26 nM.

As for `NC(=O)c1c(-c2ccc(Oc3ccccc3)cc2)nn2c1Nc1ccc(C(=O)NC3CCN(CC4CCN(c5cc6c(cc5F)C(=O)N(C5CCC(=O)NC5=O)C6=O)CC4)CC3)cc1CC2` (centres unmarked) [Example A10, N^7-(1-((1-(2-(2,6-dioxopiperidin-3-yl)-6-fluoro-1,3-dioxoisoindolin-5-yl)piperidin-4-yl)methyl)piperidin-4-yl)-2-(4-phenoxyphenyl)-9,10-dihydro-4H-benzo[d]pyrazolo[1,5-a][1,3]diazepine-3,7-dicarboxamide], the IC50 in test [1] is 121 nM. The molecule further had a 50% degradation concentration (DC50) in test [2] of 1.75 nM.

In the case of `NC(=O)c1c(-c2ccc(Oc3ccccc3)cc2)nn2c1Nc1ccc(NC(=O)C3CCN(c4cccc5c4C(=O)N(C4CCC(=O)NC4=O)C5=O)CC3)cc1CC2` (centres unmarked) [Example A11, 7-(1-(2-(2,6-dioxopiperidin-3-yl)-1,3-dioxoisoindolin-4-yl)piperidine-4-carboxamido)-2-(4-phenoxyphenyl)-9,10-dihydro-4H-benzo[d]pyrazolo[1,5-a][1,3]diazepine-3-carboxamide], in test [1], the IC50 worked out at 826 nM. In addition, in test [2], half-maximal degradation (DC50) was put at 5.71 nM.

For the molecule `NC(=O)c1c(-c2ccc(Oc3ccccc3)cc2)nn2c1Nc1ccc(C(=O)N[C@H]3CC[C@H](CN4CCN(c5cc6c(cc5F)C(=O)N(C5CCC(=O)NC5=O)C6=O)CC4)CC3)cc1CC2` (some centres unmarked) [Example A12, N^7-((1r,4r)-4-((4-(2-(2,6-dioxopiperidin-3-yl)-6-fluoro-1,3-dioxoisoindolin-5-yl)piperazin-1-yl)methyl)cyclohexyl)-2-(4-phenoxyphenyl)-9,10-dihydro-4H-benzo[d]pyrazolo[1,5-a][1,3]diazepine-3,7-dicarboxamide], in test [1], the IC50 worked out at 396 nM. In addition, in test [2], the DC50 stood at 4.58 nM.

Turning to `NC(=O)c1c(-c2ccc(Oc3ccccc3)cc2)nn2c1Nc1ccc(C(=O)N3CCN(CC4CCN(c5ccc6c(c5)C(=O)N(C5CCC(=O)NC5=O)C6=O)CC4)CC3)cc1CC2` (centres unmarked) [Example A13, 7-(4-((1-(2-(2,6-dioxopiperidin-3-yl)-1,3-dioxoisoindolin-5-yl)piperidin-4-yl)methyl)piperazine-1-carbonyl)-2-(4-phenoxyphenyl)-9,10-dihydro-4H-benzo[d]pyrazolo[1,5-a][1,3]diazepine-3-carboxamide], the IC50 in test [1] is 167 nM. For the same molecule, in test [2], it took 2.79 nM to reach half-maximal degradation (DC50).

As to `NC(=O)c1c(-c2ccc(Oc3ccccc3)cc2)nn2c1Nc1ccc(C(=O)N3CCC(CN4CCN(c5cc6c(cc5F)C(=O)N(C5CCC(=O)NC5=O)C6=O)CC4)CC3)cc1CC2` (centres unmarked) [Example A14, 7-(4-((4-(2-(2,6-dioxopiperidin-3-yl)-6-fluoro-1,3-dioxoisoindolin-5-yl)piperazin-1-yl)methyl)piperidine-1-carbonyl)-2-(4-phenoxyphenyl)-9,10-dihydro-4H-benzo[d]pyrazolo[1,5-a][1,3]diazepine-3-carboxamide], the IC50 in test [1] stood at 509 nM. For the same molecule, the 50% degradation concentration (DC50) in test [2] is 3.22 nM.

Consider `NC(=O)c1c(-c2ccc(Oc3ccccc3)cc2)nn2c1Nc1cc(NC(=O)C3CCN(CC4CCN(c5ccc6c(c5)C(=O)N(C5CCC(=O)NC5=O)C6=O)CC4)CC3)ccc1CC2` (centres unmarked) [Example A18, 6-(1-((1-(2-(2,6-dioxopiperidin-3-yl)-1,3-dioxoisoindolin-5-yl)piperidin-4-yl)methyl)piperidine-4-carboxamido)-2-(4-phenoxyphenyl)-9,10-dihydro-4H-benzo[d]pyrazolo[1,5-a][1,3]diazepine-3-carboxamide], for which the IC50 in test [1] worked out at 2510 nM. In test [2], the DC50 worked out at 9.62 nM.
